# In patent US10981926B2 (Janssen Pharmaceutica NV, priority 2016, dated 2021):
# Experiments:
# Assay type in all cases: cell-based
# [1] = target: T1, F876L mutant Androgen Receptor (AR-F876L) (Homo sapiens (Human), UniProt P10275, F877L); test: LNCaP-AR-F876L AG reporter assay (agonist mode); details: for EC50: agonist mode, pEC50 = −Log10(EC50 in Molar), read-out: LNCaP-AR-F876L AG pEC50 (converted); for Emax: read-out: LNCaP-AR-F876L AG MAX % Stim
# [2] = target: T1, F876L mutant Androgen Receptor (AR-F876L); test: LNCaP-AR-F876L ANT reporter assay (antagonist mode); details: for IC50: read-out: LNCaP-AR-F876L ANT pIC50 (converted); for Emax: maximum % inhibition of R1881 control response over the tested concentration range, read-out: LNCaP-AR-F876L ANT MAX % Inh
# [3] = target: T2, wild-type Androgen Receptor (AR-wt) (Homo sapiens (Human), UniProt P10275); test: LNCaP-AR-wt ANT reporter assay (antagonist mode); details: for IC50: read-out: LNCaP-AR-wt ANT pIC50 (converted); for Emax: maximum % inhibition of R1881 control response over the tested concentration range, read-out: LNCaP-AR-wt ANT MAX % Inh
# T2 sequence (P10275 whole entry): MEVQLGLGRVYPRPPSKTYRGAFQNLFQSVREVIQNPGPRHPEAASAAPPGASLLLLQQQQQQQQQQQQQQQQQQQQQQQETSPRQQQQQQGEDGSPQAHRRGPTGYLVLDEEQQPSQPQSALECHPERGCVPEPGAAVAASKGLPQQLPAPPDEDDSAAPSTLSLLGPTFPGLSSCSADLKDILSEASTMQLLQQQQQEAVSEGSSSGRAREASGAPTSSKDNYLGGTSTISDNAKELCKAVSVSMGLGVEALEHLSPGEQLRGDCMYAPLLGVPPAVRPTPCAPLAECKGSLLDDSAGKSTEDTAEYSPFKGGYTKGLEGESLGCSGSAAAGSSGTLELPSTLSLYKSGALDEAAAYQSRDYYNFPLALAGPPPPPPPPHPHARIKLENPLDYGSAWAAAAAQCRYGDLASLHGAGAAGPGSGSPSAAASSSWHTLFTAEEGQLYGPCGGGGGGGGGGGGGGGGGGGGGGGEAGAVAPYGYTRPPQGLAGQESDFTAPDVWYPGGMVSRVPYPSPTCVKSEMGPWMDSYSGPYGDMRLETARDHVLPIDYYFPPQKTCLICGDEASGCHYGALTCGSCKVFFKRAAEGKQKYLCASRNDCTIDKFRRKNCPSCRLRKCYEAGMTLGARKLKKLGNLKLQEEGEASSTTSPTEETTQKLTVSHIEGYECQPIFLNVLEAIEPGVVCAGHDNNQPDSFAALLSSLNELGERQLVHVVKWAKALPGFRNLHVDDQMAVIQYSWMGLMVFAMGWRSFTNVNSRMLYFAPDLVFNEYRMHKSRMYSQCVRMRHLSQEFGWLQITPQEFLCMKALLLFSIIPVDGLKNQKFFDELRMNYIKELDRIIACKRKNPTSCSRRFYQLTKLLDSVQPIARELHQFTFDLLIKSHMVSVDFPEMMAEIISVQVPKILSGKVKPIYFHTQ
# [4] = target: T2, wild-type Androgen Receptor (AR-wt); test: LNCaP-AR-wt AG reporter assay (agonist mode); details: for EC50: agonist mode, pEC50 = −Log10(EC50 in Molar), read-out: LNCaP-AR-wt AG pEC50 (converted); for Emax: maximum % stimulation (agonist response) over the tested concentration range, read-out: LNCaP-AR-wt AG MAX % Stim
# [5] = maximum % stimulation (agonist response) over the tested concentration range
# [6] = antagonist mode, pIC50 = −Log10(IC50 in Molar)
# T1 sequence (P10275 whole entry F877L): as the sequence (P10275 whole entry) above, with F877L counted along it
Compound,EC50 [1],"Emax [1, 5]","IC50 [2, 6]",Emax [2],"IC50 [3, 6]",Emax [3],EC50 [4],Emax [4],"LNCaP-AR-F876L AG MAX % Stim [1, 5]","LNCaP-AR-F876L ANT pIC50 [2, 6]","LNCaP-AR-wt ANT pIC50 [3, 6]"
"Cc1cc(N2C(=O)C3(CCC3)N(c3ccc(N4CCNC4=O)cc3)C2=S)cnc1C#N [Cpd 9, 3-Methyl-5-{5-oxo-8-[4-(2-oxoimidazolidinyl)phenyl]-7-thioxo-6,8-diazaspiro[3.4]oct-6-yl}pyridine-2-carbonitrile]",> 15.1 µM,0.5%,575 nM,98.4%,1200 nM,94.2%,> 15.1 µM,0.1%,–,–,–
"CCNC(=O)n1cc(-c2ccc(N3C(=S)N(c4cnc(C#N)c(C)c4)C(=O)C34CCC4)cc2)cn1 [Cpd 10, (4-{4-[7-(6-cyano-5-methyl(3-pyridyl))-8-oxo-6-thioxo-5,7-diazaspiro[3.4]oct-5-yl]phenyl}pyrazolyl)-N-ethylcarboxamide]",> 15.1 µM,0.9%,275 nM,100%,339 nM,102%,> 15.1 µM,0.5%,–,–,–
"COc1ccc(N2C(=S)N(c3cnc(C#N)c(C(F)(F)F)c3)C(=O)C23CCC3)cn1 [Cpd 15, 5-[8-(6-methoxy-3-pyridyl)-5-oxo-7-thioxo-6,8-diazaspiro[3.4]octan-6-yl]-3-(trifluoromethyl)pyridine-2-carbonitrile]",> 15.1 µM,1.1%,191 nM,100%,240 nM,101%,> 15.1 µM,-0.1%,–,–,–
"N#Cc1ncc(N2C(=O)C3(CCC3)N(c3ccc(O)nc3)C2=S)cc1C(F)(F)F [Cpd 18, 5-[8-(6-hydroxy-3-pyridyl)-5-oxo-7-thioxo-6,8-diazaspiro[3.4]octan-6-yl]-3-(trifluoromethyl)pyridine-2-carbonitrile]",> 15.1 µM,0%,–,99%,–,93.5%,> 15.1 µM,0%,–,6.00,5.65
COc1cc(N2C(=O)C3(CCC3)N(c3ccc(OC4CCN(C)CC4)nc3)C2=S)cnc1C#N [Cpd 25],> 15.1 µM,0.2%,–,100%,–,101%,> 15.1 µM,0%,–,–,–
CN1CCC(Oc2ccc(N3C(=S)N(c4cnc(C#N)c(Cl)c4)C(=O)C34CCC4)cn2)CC1 [Cpd 26],> 15.1 µM,0.5%,69.2 nM,100%,55 nM,101%,> 15.1 µM,0.4%,–,–,–
"Cc1cc(N2C(=O)C3(CCC3)N(c3ccc(OCCCN(C)C)nc3)C2=S)cnc1C#N [Cpd 27, 5-[8-[6-[3-(dimethylamino)propoxy]-3-pyridyl]-5-oxo-7-thioxo-6,8-diazaspiro[3.4]octan-6-yl]-3-methyl-pyridine-2-carbonitrile]",> 15.1 µM,-0.1%,107 nM,101%,219 nM,101%,> 15.1 µM,0%,–,–,–
"CC(C)(C)OC(=O)N1CCN(C(=O)c2ccc(N3C(=S)N(c4cnc(C#N)c(C(F)(F)F)c4)C(=O)C34CCC4)cc2)CC1 [Cpd 32, tert-butyl 4-[4-[6-[6-cyano-5-(trifluoromethyl)-3-pyridyl]-5-oxo-7-thioxo-6,8-diazaspiro[3.4]octan-8-yl]benzoyl]piperazine-1-carboxylate]",> 15.1 µM,-0.1%,1120 nM,74.1%,2140 nM,64.9%,> 15.1 µM,0.4%,–,–,–
"N#Cc1ncc(N2C(=O)C3(CCC3)N(c3ccc(O)nc3)C2=S)cc1Cl [Cpd 45, 3-chloro-5-[8-(6-hydroxy-3-pyridyl)-5-oxo-7-thioxo-6,8-diazaspiro[3.4]octan-6-yl]pyridine-2-carbonitrile]",> 15.1 µM,0%,1260 nM,99.2%,3020 nM,92.9%,> 15.1 µM,-0.3%,–,–,–
"CC(C)(C)OC(=O)N1CCC(CNC(=O)c2ccc(N3C(=S)N(c4cnc(C#N)c(C(F)(F)F)c4)C(=O)C34CCC4)cc2)CC1 [Cpd 46, tert-butyl 4-[[[4-[6-[6-cyano-5-(trifluoromethyl)-3-pyridyl]-5-oxo-7-thioxo-6,8-diazaspiro[3.4]octan-8-yl]benzoyl]amino]methyl]piperidine-1-carboxylate]",> 15.1 µM,0.3%,110 nM,97.6%,219 nM,101%,> 15.1 µM,1.1%,–,–,–

# Second part, the molecule after the results:
EC50 [1],"Emax [1, 5]","IC50 [2, 6]",Emax [2],"IC50 [3, 6]",Emax [3],EC50 [4],Emax [4],"LNCaP-AR-F876L AG MAX % Stim [1, 5]","LNCaP-AR-F876L ANT pIC50 [2, 6]","LNCaP-AR-wt ANT pIC50 [3, 6]",Compound
> 15.1 µM,0.7%,117 nM,98.5%,661 nM,101%,> 15.1 µM,0.5%,–,–,–,"N#Cc1ncc(N2C(=O)C3(CCC3)N(c3ccc(OC4CCSCC4)cc3)C2=S)cc1C(F)(F)F [Cpd 12, 5-[5-oxo-8-(4-thian-4-yloxyphenyl)-7-thioxo-6,8-diazaspiro[3.4]oct-6-yl]-3-(trifluoromethyl)pyridine-2-carbonitrile]"
> 15.1 µM,1%,363 nM,98.1%,537 nM,101%,> 15.1 µM,0.5%,–,–,–,"N#Cc1ncc(N2C(=O)C3(CCC3)N(c3ccc(OC4CCS(=O)(=O)CC4)cc3)C2=S)cc1C(F)(F)F [Cpd 13, 5-{8-[4-(1,1-dioxothian-4-yloxy)phenyl]-5-oxo-7-thioxo-6,8-diazaspiro[3.4]oct-6-yl}-3-(trifluoromethyl)pyridine-2-carbonitrile]"
> 15.1 µM,0.2%,234 nM,98.4%,562 nM,97.1%,> 15.1 µM,0.4%,–,–,–,"N#Cc1ncc(N2C(=O)C3(CCC3)N(c3ccc(OC4CCN(CCCF)CC4)cc3)C2=S)cc1C(F)(F)F [Cpd 14, 5-(5-(4-((1-(3-fluoropropyl)piperidin-4-yl)oxy)phenyl)-8-oxo-6-thioxo-5,7-diazaspiro[3.4]octan-7-yl)-3-(trifluoromethyl)picolinonitrile]"
> 15.1 µM,0.8%,363 nM,97.5%,1120 nM,98.8%,> 15.1 µM,0.5%,–,–,–,"CN1CC[C@@H](Oc2ccc(N3C(=S)N(c4cnc(C#N)c(C(F)(F)F)c4)C(=O)C34CCC4)cc2)C1 [Cpd 16, 5-[8-[4-[(3R)-1-methylpyrrolidin-3-yl]oxyphenyl]-5-oxo-7-thioxo-6,8-diazaspiro[3.4]octan-6-yl]-3-(trifluoromethyl)pyridine-2-carbonitrile]"
> 15.1 µM,–,457 nM,100%,1510 nM,98.5%,> 15.1 µM,0.3%,0.1%,–,–,"N#Cc1ncc(N2C(=O)C3(CCC3)N(c3ccc(OC4CCCNCC4)cc3)C2=S)cc1C(F)(F)F (stereo not shown) [Cpd 17, 5-[8-(4-azaperhydroepin-4-yloxyphenyl)-5-oxo-7-thioxo-6,8-diazaspiro[3.4]oct-6-yl]-3-(trifluoromethyl)pyridine-2-carbonitrile]"
> 15.1 µM,1.6%,200 nM,101%,661 nM,101%,> 15.1 µM,0.3%,–,–,–,"CN1CCCC(Oc2ccc(N3C(=S)N(c4cnc(C#N)c(C(F)(F)F)c4)C(=O)C34CCC4)cc2)CC1 (stereo not shown) [Cpd 19, 5-{8-[4-(1-methylazaperhydroepin-4-yloxy)phenyl]-5-oxo-7-thioxo-6,8-diazaspiro[3.4]oct-6-yl}-3-(trifluoromethyl)pyridine-2-carbonitrile]"
> 15.1 µM,-0.5%,513 nM,97.7%,1820 nM,93.2%,> 15.1 µM,0.2%,–,–,–,"CN1CCC[C@H](Oc2ccc(N3C(=S)N(c4cnc(C#N)c(C(F)(F)F)c4)C(=O)C34CCC4)cc2)C1 [Cpd 20, 5-{8-[4-((3S)-1-methyl(3-piperidyloxy))phenyl]-5-oxo-7-thioxo-6,8-diazaspiro[3.4]oct-6-yl}-3-(trifluoromethyl)pyridine-2-carbonitrile]"
> 15.1 µM,0.3%,309 nM,69.9%,501 nM,80.6%,> 15.1 µM,-0.1%,–,–,–,"Cc1cc(N2C(=O)C3(CCC3)N(c3ccc(OC4CCSCC4)nc3)C2=S)cnc1C#N [Cpd 21, 3-methyl-5-[5-oxo-8-(6-thian-4-yloxy(3-pyridyl))-7-thioxo-6,8-diazaspiro[3.4]oct-6-yl]pyridine-2-carbonitrile]"
